The values that follow come from patent US20250127169A1, “PLANTS HAVING INCREASED TOLERANCE TO HERBICIDES” (BASF Agricultural Solutions Seed US LLC, priority 2021, published 2025).

Molecules are shown by their SMILES. Read-outs that look alike come from different tables or passages of the source.

Experiment [1] deals with Soybean CD215 WT (non-transgenic). In kind it is in vivo. The note with it: post, single plants.
Experiment [2] deals with Soybean cv Jake WT (non-transgenic). In kind it is in vivo. The conditions noted are these: post, single plants. Here is the method:
Soybean cv Jake is transformed as previously described by Siminszky et al., Phytochem Rev. 5:445-458 (2006). After regeneration, transformants are transplanted to soil in small pots, placed in growth chambers (16 hr day/8 hr night; 25° C. day/23° C. night; 65% relative humidity; 130-150 microE m-2 s-1) and subsequently tested for the presence of the T-DNA via Taqman analysis. After a few weeks, healthy, transgenic positive, single copy events are transplanted to larger pots and allowed to grow in the growth chamber. An optimal shoot for cutting is about 3-4 inches tall, with at least two nodes present. Each cutting is taken from the original transformant (mother plant) and dipped into rooting hormone powder (indole-3-butyric acid, IBA). The cutting is then placed in oasis wedges inside a bio-dome. The mother plant is taken to maturity in the greenhouse and harvested for seed. Wild type cuttings are also taken simultaneously to serve as negative controls. The cuttings are kept in the bio-dome for 5-7 days and then transplanted to 3 inch pots and then acclimated in the growth chamber for two more days. Subsequently, the cuttings are transferred to the greenhouse, acclimated for approximately 4 days prior to spray. T0 or 2-week old T1 plants are sprayed with a treatment of the phenyluracils as disclosed SUPRA and optionally photosynthesis inhibitor diuron as negative control. Herbicide injury evaluations are taken at 2, 7, 14 and 21 days after treatment.
Evaluation performed 3 Days After Treatment (DAT) and 1 Week after Treatment (WAT) and shown as injury (0-9) relative to non-transgenic treated plants. Injury Scale: 0-9, 0=no injury, 9=maximum injury. Note: segregating lines.
The following gives a definition of the injury scores measured above: • Score Description of injury • 0 No Injury • 1 Minimal injury, only a few patches of leaf injury or chlorosis. • 2 Minimal injury with slightly stronger chlorosis. Overall growth points remain undamaged. • 3 Slightly stronger injury on secondary leaf tissue, but primary leaf and growth points are still undamaged. • 4 Overall plant morphology is slightly different, some chlorosis and necrosis in secondary growth points and leaf tissue. Stems are intact. Regrowth is highly probable within 1 week. • 5 Overall plant morphology is clearly different, some chlorosis and necrosis on a few leaves and growth points, but primary growth point is intact. Stem tissue is still green. Regrowth is highly probably within 1 week. • 6 Strong injury can be seen on the new leaflet growth. Plant has a high probability to survive only through regrowth at different growth points. Most of the leaves are chlorotic/necrotic but stem tissue is still green. May have regrowth but with noticeable injured appearance. • 7 Most of the active growth points are necrotic. There may be a single growth point that could survive and may be partially chlorotic or green and partially necrotic. Two leaves may still be chlorotic with some green; the rest of the plant including stem is necrotic. • 8 Plant will likely die, and all growth points are necrotic. One leaf may still be chlorotic with some green. The remainder of the plant is necrotic. • 9 Plant is dead.

The target of experiment [3] is PPO AMATU WT (SEQ ID NO: 1) (Amaranthus tuberculatus, UniProt Q0NZW9). Briefly: PPO enzyme assay (recombinant). The note with it: 150 μM Protogen, molar concentration for 50% enzyme inhibition. Format: biochemical.

For the compound `COC(=O)C(OC)Oc1ccccc1Oc1cc(-n2c(=O)cc(C(F)(F)F)n(C)c2=O)c(F)cc1Br` (stereo not drawn) [Phenyluracil No. 1], the “injury (0-9)” value is listed as 9 (Plant is dead.) in experiment [1] (25 g/ha + 1% MSO, 1WAT); 9 (Plant is dead.) in experiment [1] (25 g/ha + 1% MSO, 3DAT); 9 (Plant is dead.) in experiment [1] (50 g/ha + 1% MSO, 1WAT); 9 (Plant is dead.) in experiment [1] (50 g/ha + 1% MSO, 3DAT); 9 (Plant is dead.) in experiment [1] (100 g/ha + 1% MSO, 1WAT); 9 (Plant is dead.) in experiment [1] (100 g/ha + 1% MSO, 3DAT). Further, the “injury (0-9)” value in experiment [2] (25 g/ha + 1% MSO, 1WAT) is given as 9 (Plant is dead.); in experiment [2] (25 g/ha + 1% MSO, 3DAT), 9 (Plant is dead.); in experiment [2] (50 g/ha + 1% MSO, 1WAT) it was 9 (Plant is dead.); in experiment [2] (50 g/ha + 1% MSO, 3DAT), 9 (Plant is dead.); in experiment [2] (100 g/ha + 1% MSO, 1WAT) it was 9 (Plant is dead.); in experiment [2] (100 g/ha + 1% MSO, 3DAT), 9 (Plant is dead.).

By IC50 is commonly meant the point on the concentration scale where inhibition reaches its midpoint. For `COC(=O)C(OC)Oc1ccccc1Oc1cc(-n2c(=O)cc(C(F)(F)F)n(C)c2=O)c(F)cc1Br` (stereo not drawn) [phenyluracil 1, methyl 2-[2-[2-bromo-4-fluoro-5-[3-methyl-2,6-dioxo-4-(trifluoromethyl)pyrimidin-1-yl]phenoxy]phenoxy]-2-methoxy-acetate], the IC50 in experiment [3] amounted to 0.716 nM.

For `CCOC(=O)C(OC)Oc1ccccc1Oc1cc(-n2c(=O)cc(C(F)(F)F)n(C)c2=O)c(F)cc1Br` (stereo not drawn) [phenyluracil 2, ethyl 2-[2-[2-bromo-4-fluoro-5-[3-methyl-2,6-dioxo-4-(trifluoromethyl)pyrimidin-1-yl]phenoxy]phenoxy]-2-methoxy-acetate], the IC50 in experiment [3] worked out at 0.323 nM.

Take `COC(Oc1ccccc1Oc1cc(-n2c(=O)cc(C(F)(F)F)n(C)c2=O)c(F)cc1Br)C(=O)O` (stereo not drawn) [phenyluracil 3, 2-[2-[2-bromo-4-fluoro-5-[3-methyl-2,6-dioxo-4-(trifluoromethyl)pyrimidin-1-yl]phenoxy]phenoxy]-2-methoxy-acetic acid]: in experiment [3], the IC50 stood at 0.183 nM.
